Source: PMC8921294, “Inhibition of mitochondrial LonP1 protease by allosteric blockade of ATP binding and hydrolysis via CDDO and its derivatives” (The Journal of Biological Chemistry, 2022)

What was measured:
LonP1 C576V = target: T1, LonP1 C576V (Homo sapiens, UniProt P36776, C576V); assay: Endpoint ATPase assay, LonP1 C576V; type: biochemical
T1 construct: hexa-histidine (N); made in house; host or cells: Rosetta 2 E. coli
T1 sequence (P36776 68-959 C576V): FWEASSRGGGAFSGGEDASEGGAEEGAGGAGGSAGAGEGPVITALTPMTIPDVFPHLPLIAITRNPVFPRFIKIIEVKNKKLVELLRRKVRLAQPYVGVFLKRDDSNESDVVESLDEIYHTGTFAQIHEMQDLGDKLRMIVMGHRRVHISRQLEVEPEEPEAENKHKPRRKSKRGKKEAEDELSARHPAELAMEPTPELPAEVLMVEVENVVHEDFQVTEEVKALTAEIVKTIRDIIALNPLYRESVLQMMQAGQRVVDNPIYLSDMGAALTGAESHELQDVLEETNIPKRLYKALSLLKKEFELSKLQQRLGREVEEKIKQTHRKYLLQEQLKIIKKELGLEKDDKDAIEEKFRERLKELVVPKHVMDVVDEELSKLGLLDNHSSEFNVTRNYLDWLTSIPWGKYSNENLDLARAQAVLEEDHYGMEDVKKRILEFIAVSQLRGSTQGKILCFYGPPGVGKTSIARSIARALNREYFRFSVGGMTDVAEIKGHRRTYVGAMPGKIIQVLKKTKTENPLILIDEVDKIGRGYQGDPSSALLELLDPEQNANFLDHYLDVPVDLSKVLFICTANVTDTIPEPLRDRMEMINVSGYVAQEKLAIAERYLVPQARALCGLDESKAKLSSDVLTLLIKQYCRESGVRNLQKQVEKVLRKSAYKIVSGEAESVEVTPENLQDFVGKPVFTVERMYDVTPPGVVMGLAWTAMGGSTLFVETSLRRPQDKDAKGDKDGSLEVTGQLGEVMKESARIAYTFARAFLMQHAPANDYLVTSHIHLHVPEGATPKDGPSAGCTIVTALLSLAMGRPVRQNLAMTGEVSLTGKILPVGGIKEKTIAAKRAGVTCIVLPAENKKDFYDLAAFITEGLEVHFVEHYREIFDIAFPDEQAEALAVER
Method: Human mitochondrial LonP1 and mutants lacking the predicted mitochondrial targeting sequence were fused to an N-terminal hexa-histidine affinity tag, expressed in Rosetta 2 E. Coli, and purified using a nickel agarose column as previously described ([72]) and protein concentration and buffer exchange carried out using Amicon Ultra centrifugal filtration. LonP1 mutant constructs were obtained from the PCR-based QuikChange Site-Directed Mutagenesis Kit.
ADP-Glo (Promega) assays were performed according to the manufacturer's protocols. Purified wild-type or mutant LonP1 (400 nM monomer), the 26S proteasome (3 nM), or no enzyme controls were preincubated in 96-well plates (60 min, 25 °C) with ten different concentrations of CDDO and its derivatives, TP-82, enoxolone (5 μM) or DMSO vehicle control in buffer (40 mM Tris-HCl (pH 7.5), 20 mM MgCl2, 0.1 mg/ml BSA and 5% DMSO). The 26S and 20S proteasome were also assayed at 0, 0.75, 1.5, 3, 6, and 12 nM in the absence of CDDO derivatives. […] Assay reagents were used to quench further ATPase activity and generate luminescence signals proportional to the concentration of ADP formed. Background (no enzyme control) luminescence values were subtracted, and resultant values were reported as a percentage of the no drug control (100%). […]

HeLa ρ^0 cells = assay: Cytotoxicity/apoptosis in HeLa ρ^0 cells (cleaved PARP, procaspase 3 immunoblot); type: cell-based, human; conditions: 7 h, Fig. 4D
Method: HeLa cells devoid of mitochondrial DNA (HeLa ρ^0) and LCL cells were generated as described previously ([50]). DMEM, RPMI, and fetal bovine serum were purchased from Sigma. All cells were grown with 5% CO2 at 37 °C. LCL cells were cultured in RPMI supplemented with 15% FBS. HeLa Rho 0 cells were cultured in high glucose DMEM (25 mM) (Sigma) supplemented with sodium pyruvate ([…]) and uridine ([…]). CDDO-Me was purchased from Cayman chemicals, and CDDO-AH was synthesized as described previously ([20]). HEK293 cells plated in 60 mm dishes at a confluency of 60 to 70% were transfected with Control or 3′UTR LonP1 siRNA using Lipofectamine 2000 (Invitrogen) and reduced serum OPTI MEM (Sigma) as described in the manufacturer’s protocol to knockdown LonP1, whereas adenoviral transduction was employed to overexpress LonP1. CDDO-Me and CDDO-anhydride were dissolved in DMSO and serially diluted in the respective complete medium and added to HeLa ρ^0 cells and were treated for 7 or 24 h.
Cells were harvested, centrifuged, and washed with PBS and proteins were extracted by adding the lysis buffer (50 mM Tris, [pH 7.5], 300 mM NaCl, and 0.5% Triton X-100) containing 2X Halt phosphatase and protease cocktail inhibitor (Thermo Scientific) for 20 min on ice. After centrifugation at 14,000 rpm for 15 min at 4 °C, the supernatant was collected and estimated for protein by Bradford’s method. […]

Fold increase in inhibition compared with WT (LonP1 C576V)	IC50 (LonP1 C576V; end-point ATPase assay, read-out: CDDO IC50) [µM]	SMILES	Concentration up to which no change in procaspase 3 levels was observed (HeLa ρ^0 cells)
2.7	5.2 ± 1.5	CC1(C)CC[C@]2(C(=O)O)CC[C@]3(C)[C@H](C(=O)C=C4[C@@]5(C)C=C(C#N)C(=O)C(C)(C)[C@@H]5CC[C@]43C)[C@@H]2C1 [CDDO, 2-cyano-3,12-dioxooleana-1,9(11)-dien-28-oic acid]	
		CC1(C)CC[C@]2(C(=O)OC(=O)[C@]34CCC(C)(C)C[C@H]3[C@H]3C(=O)C=C5[C@@]6(C)C=C(C#N)C(=O)C(C)(C)[C@@H]6CC[C@@]5(C)[C@]3(C)CC4)CC[C@]3(C)[C@H](C(=O)C=C4[C@@]5(C)C=C(C#N)C(=O)C(C)(C)[C@@H]5CC[C@]43C)[C@@H]2C1 [CDDO-anhydride]	up to 5 μM
